# Like-named read-outs stand apart in the source and are kept apart here.
# Experiments:
# Assay type in all cases: cell-based
# [1] = system: Staphylococcus aureus JCI (MRSA); experiment: Antimicrobial power against MRSA, MIC by Nutrient Broth liquid medium dilution method; conditions: for MIC: Staphylococcus aureus JCI (MRSA); for Antimicrobial activity against MRSA (in words): at a low concentration
# Protocol: Antimicrobial power against MRSA (Methicillin-resistant Staphylococcus aureus) of N,N′-hexamethylenebis (4-carbamoyl-1-decylpyridinium bromide) (“Dimer 38” manufactured by INUI CORPORATION) and 4,4′-(tetramethylenecarbonyldiamino)bis(1-decyl-pyridinium bromide) (“Dimer 136” manufactured by INUI CORPORATION). L-broth (5 ml) was inoculated with Staphylococcus aureus JC1 and, after incubation at 37° C. for 18 hours, the MIC (minimum inhibitory concentration) of Dimer 38 and Dimer 136 was measured according to the Nutrient Broth liquid medium dilution method.
# [2] = system: Bacillus subtilis ATCC 6633
# Protocol: (§1) L-broth (5 ml) was inoculated with each bacteria and, after incubation at 37° C. for 18 hours, the MIC (minimum inhibitory concentration) was measured according to the Nutrient Broth liquid medium dilution method.
# [3] = system: Staphylococcus aureus IFO 12732
# Protocol: as §1
# [4] = system: Pseudomonas aeruginosa ATCC 10145
# Protocol: as §1
# [5] = system: Escherichia coli K12W3110
# Protocol: as §1
compound,measurement,setting,value
"4,4′-(tetramethylenedicarbonyldiamino)bis(1-decylpyridinium bromide) [Dimer 136]",MIC,[1],0.6 ppm
same,Antimicrobial activity against MRSA (in words),[1],demonstrate an antimicrobial activity against MRSA
"CCCCCCCCCC[n+]1ccc(C(=O)NCCCCCCNC(=O)c2cc[n+](CCCCCCCCCC)cc2)cc1.[Br-].[Br-] [Dimer 38, N,N′-Hexamethylenebis(4-carbamoyl-1-decylpyridinium bromide)]",MIC,[1],0.2 ppm
same,Antimicrobial activity against MRSA (in words),[1],demonstrate an antimicrobial activity against MRSA
"CC(=O)[O-].CC(=O)[O-].CCCCCCCCCC[n+]1ccc(C(=O)NCCCCCCNC(=O)c2cc[n+](CCCCCCCCCC)cc2)cc1 [Dimer 38A, N,N′-hexamethylenebis(4-carbamoyl-1-decylpyridinium acetate)]",MIC,"[2]; procedure 1 of 7, B. subtilis ATCC 6633",0.8 ppm
same,MIC,"[2]; procedure 2 of 7, B. subtilis ATCC 6633",0.2 ppm
same,MIC,"[2]; procedure 3 of 7, B. subtilis ATCC 6633",0.4 ppm
same,MIC,"[2]; procedure 4 of 7, B. subtilis ATCC 6633",0.2 ppm
same,MIC,"[2]; procedure 5 of 7, B. subtilis ATCC 6633",0.4 ppm
same,MIC,"[2]; procedure 6 of 7, B. subtilis ATCC 6633",0.4 ppm
same,MIC,"[2]; procedure 7 of 7, B. subtilis ATCC 6633",0.4 ppm
same,MIC,"[3]; procedure 1 of 7, S. aureus IFO 12732",0.1 ppm
same,MIC,"[3]; procedure 2 of 7, S. aureus IFO 12732",0.01 ppm
same,MIC,"[3]; procedure 3 of 7, S. aureus IFO 12732",0.05 ppm
same,MIC,"[3]; procedure 4 of 7, S. aureus IFO 12732",0.01 ppm
same,MIC,"[3]; procedure 5 of 7, S. aureus IFO 12732",0.1 ppm
same,MIC,"[3]; procedure 6 of 7, S. aureus IFO 12732",0.1 ppm
same,MIC,"[3]; procedure 7 of 7, S. aureus IFO 12732",0.05 ppm
same,MIC,"[4]; procedure 1 of 7, P. aeruginosa ATCC 10145",3.1 ppm
same,MIC,"[4]; procedure 2 of 7, P. aeruginosa ATCC 10145",3.1 ppm
same,MIC,"[4]; procedure 3 of 7, P. aeruginosa ATCC 10145",6.3 ppm
same,MIC,"[4]; procedure 4 of 7, P. aeruginosa ATCC 10145",6.3 ppm
same,MIC,"[4]; procedure 5 of 7, P. aeruginosa ATCC 10145",6.3 ppm
same,MIC,"[4]; procedure 6 of 7, P. aeruginosa ATCC 10145",6.3 ppm
same,MIC,"[4]; procedure 7 of 7, P. aeruginosa ATCC 10145",3.1 ppm
same,MIC,"[5]; procedure 1 of 7, E. coli K12W3110",1.6 ppm
same,MIC,"[5]; procedure 2 of 7, E. coli K12W3110",0.8 ppm
same,MIC,"[5]; procedure 3 of 7, E. coli K12W3110",0.8 ppm
same,MIC,"[5]; procedure 4 of 7, E. coli K12W3110",0.8 ppm
same,MIC,"[5]; procedure 5 of 7, E. coli K12W3110",1.6 ppm
same,MIC,"[5]; procedure 6 of 7, E. coli K12W3110",1.6 ppm
same,MIC,"[5]; procedure 7 of 7, E. coli K12W3110",1.6 ppm

# — patent US6436890B1, “Antimicrobial detergent composition” (Inui Corporation, priority 1999, dated 2002)
